Assay results from patent US20210363110A1, “4-METHYLDIHYDROPYRIMIDINONE COMPOUNDS AND PHARMACEUTICAL USE THEREOF” (Japan Tobacco Inc., priority 2018, published 2021).

Legend:
human RORγ = target: T1, human RORγ (Homo sapiens, UniProt P51449); assay: Reporter gene assay for inhibitory effect against RORγ transcriptional activity (GAL4-hRORγ LBD, luciferase, CHO cells); assay type: cell-based; conditions: pFA/hRORγ + pG5-Luc, 2 days incubation
T1 construct: from Ser253 to Lys518 for human RORγ; expressed in transfected cells; host or cells: CHO cells (transient co-transfection with pG5-Luc)
T1 sequence (P51449 253-518): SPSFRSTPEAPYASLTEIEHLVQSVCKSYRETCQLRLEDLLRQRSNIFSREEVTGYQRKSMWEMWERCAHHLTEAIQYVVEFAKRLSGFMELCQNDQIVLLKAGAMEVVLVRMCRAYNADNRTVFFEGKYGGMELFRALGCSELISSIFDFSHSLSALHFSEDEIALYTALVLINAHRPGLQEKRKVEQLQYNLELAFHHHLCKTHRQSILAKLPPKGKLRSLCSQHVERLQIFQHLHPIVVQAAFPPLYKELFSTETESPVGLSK
Procedure: Inhibitory effect against RORγ transcriptional activity was assessed by reporter gene assay for test compounds.
cDNAs encoding human and mouse RORγ ligand binding domains (LBD) were obtained based on the sequences of human RORγ (Genbank registered number NM_005060.3) and mouse RORγ (Genbank registered number NM_011281.2) (LBD sequences: from Ser253 to Lys518 for human RORγ; from Ile251 to Lys516 for mouse RORγ).
LBD cDNAs of human and mouse RORγ were inserted into pFA-CMV vector (Agilent Technologies, Inc.), which expresses GAL4-DNA binding domain fusion protein. The resulting plasmids are hereinafter referred to as pFA/hRORγ plasmid and pFA/mRORγ plasmid, respectively. […]
Cell viability was tested by luminescence method with CellTiter-Glo (Promega). […] Ten minutes after the addition, luminescence was measured for each well with a microplate reader. The luminescence count in the cells treated with 0.2% DMSO alone was defined as 100%, and the cell viability after treatment with the test compound was calculated as a percentage (%-of-control) based on the value of 0.2% DMSO alone. When the cell viability was 70% or less, a test compound was assessed to have cytotoxicity.
RORγ transcriptional activity was detected as the intracellular luciferase activity using SteadyLite HTS Reporter Gene Assay System (Perkin Elmer). […]

[1] = Metabolic stability in liver microsomes, rat; assay type: in vitro ADME; conditions: residual ratio of unreacted substance, 0.2 mg/mL microsomes, NADPH generating system
Procedure: A test solution was prepared by diluting 10 mM DMSO solution of a test substance with acetonitrile by 100 times.
Human and animal liver microsomes (SEKISUI XENOTECH; Human (H2610), Rat (R1000), Mouse (M1000), Monkey (P2000), Dog (D1000)) were adjusted with potassium phosphate buffer (pH 7.4) to 0.2 mg/mL in the reaction system. Then, 1% of the solution of a test substance prepared was added to the reaction system. Thereto was added an NADPH generating system (prepared according to the method of Non Patent Literature 28), and the metabolic reaction was initiated. At a designated time, 0.1% formic acid-acetonitrile/water (3:1) was added thereto, and the reaction was terminated.
(§1) The sample after termination of the reaction was separated by centrifugation (1400 g, 20 min.), and then the supernatant was measured by LC/MS (UPLC-SQD (waters)) to calculate a residual ratio of unreacted substances.

[2] = Metabolic stability in hepatocytes, dog; assay type: in vitro ADME; conditions: residual ratio of unreacted substance, 1×10^6 cells/mL
Procedure: (§2) A test solution was prepared by diluting 10 mM DMSO solution of a test substance with acetonitrile by 20 times.
(§3) Human and animal cryopreserved hepatocyte (BIOIVT; Human (IVT-X008000), Rat (IVT-M00005), Monkey (IVT-M00305), Dog (IVT-M00205)) were adjusted with William's Medium E (SIGMA; W1878) to 1×10^6 cells/mL of a cell suspension, which was then added to a 96-well plate. Then, 1% of the solution of a test substance prepared was added to the reaction system, and the metabolic reaction was initiated. At a designated time, 0.1% formic acid-acetonitrile was added thereto, and the reaction was terminated.
as §1

[3] = Metabolic stability in hepatocytes, rat; assay type: in vitro ADME; conditions: residual ratio of unreacted substance, 1×10^6 cells/mL
Procedure: as §2, §3, §1

CC[C@H](C)C1=CN(C23CC(C(=O)O)(C2)C3)C(=O)N[C@@]1(C)c1ccc([C@@H]2C[C@H]2C(C)(C)C)c(Cl)c1 [Compound (2), 3-{(S)-5-((S)-sec-Butyl)-4-[4-((1R,2R)-2-tert-butyl-cyclopropyl)-3-chloro-phenyl]-4-methyl-2-oxo-3,4-dihydro-2H-pyrimidin-1-yl}bicyclo[1.1.1]pentane-1-carboxylic acid]
EC50 (human RORγ): 14 nM | Metabolic stability in liver microsomes at 60 min., Rat [1]: 95% | Metabolic stability in hepatocytes at 240 min., Dog [2]: 78% | Metabolic stability in hepatocytes at 240 min., Rat [3]: 94%

CC(C)C1=CN(C23CC(C(=O)O)(C2)C3)C(=O)N[C@@]1(C)c1ccc([C@@H]2C[C@H]2C(C)(C)C)c(Cl)c1 [Compound (1), 3-{(S)-4-[4-((1R,2R)-2-tert-Butyl-cyclopropyl)-3-chloro-phenyl]-5-isopropyl-4-methyl-2-oxo-3,4-dihydro-2H-pyrimidin-1-yl}bicyclo[1.1.1]pentane-1-carboxylic acid]
EC50 (human RORγ): 23 nM | Metabolic stability in liver microsomes at 60 min., Rat [1]: 103% | Metabolic stability in hepatocytes at 240 min., Dog [2]: 88% | Metabolic stability in hepatocytes at 240 min., Rat [3]: 90%
